Measured values: the supplement of paper PMC10883282

How the values were obtained:
Assay in all cases: relative viability vs DMSO control (72 h) (fraction); higher = more viable cells
SK-LMS-1 = system: SK-LMS-1
Outline: (§1)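 After seeding at densities set for 80–90% confluence in 384-well plates, sarcoma cell lines waited 24 h before 2.5 µl of serially diluted compound was added. Source plates held 10 mM down to 0.0002 mM. Plates were incubated 72 h at 37 °C with 5% CO2, with 0.1% DMSO vehicle and a 5 µM positive control, and relative viability was taken from ATPLite as percent growth averaged over up to triplicate wells, with 1 set as full and 0 as none.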

VA-ES-BJ = system: VA-ES-BJ
Outline: as §1

KHOS-240S = system: KHOS-240S
Outline: as §1

A204 = system: A204
Outline: as §1

MES-SA = system: MES-SA
Outline: as §1

SW1353 = system: SW1353
Outline: as §1

SK-ES-1 = system: SK-ES-1
Outline: as §1

RD = system: RD
Outline: as §1

SW872 = system: SW872
Outline: as §1

G401 = system: G401
Outline: as §1

HS729 = system: HS729
Outline: as §1

SW982 = system: SW982
Outline: as §1

Cc1c2oc3c(C)ccc(C(=O)N[C@@H]4C(=O)N[C@H](C(C)C)C(=O)N5CCC[C@H]5C(=O)N(C)CC(=O)N(C)[C@@H](C(C)C)C(=O)O[C@@H]4C)c3nc-2c(C(=O)N[C@@H]2C(=O)N[C@H](C(C)C)C(=O)N3CCC[C@H]3C(=O)N(C)CC(=O)N(C)[C@@H](C(C)C)C(=O)O[C@@H]2C)c(N)c1=O [Dactinomycin]
Conditions	relative viability
A204, 0.00017 µM	1.02
A204, 0.00051 µM	0.99
A204, 0.00152 µM	0.641
A204, 0.00457 µM	0.393
A204, 0.01372 µM	0.277
A204, 0.04115 µM	0.234
A204, 0.1235 µM	0.193
A204, 0.3704 µM	0.201
A204, 1.111 µM	0.169
A204, 3.333 µM	0.161
A204, 10 µM	0.168
G401, 0.00017 µM	0.948
G401, 0.00051 µM	0.877
G401, 0.00152 µM	0.652
G401, 0.00457 µM	0.441
G401, 0.01372 µM	0.279
G401, 0.04115 µM	0.211
G401, 0.1235 µM	0.155
G401, 0.3704 µM	0.118
G401, 1.111 µM	0.087
G401, 3.333 µM	0.0667
G401, 10 µM	0.0642
HS729, 0.00017 µM	0.912
HS729, 0.00051 µM	0.937
HS729, 0.00152 µM	0.884
HS729, 0.00457 µM	0.8961
HS729, 0.01372 µM	0.711
HS729, 0.04115 µM	0.128
HS729, 0.1235 µM	0.166
HS729, 0.3704 µM	0.119
HS729, 1.111 µM	0.108
HS729, 3.333 µM	0.113
HS729, 10 µM	0.132
KHOS-240S, 0.00017 µM	1.04
KHOS-240S, 0.00051 µM	1.06
KHOS-240S, 0.00152 µM	0.864
KHOS-240S, 0.00457 µM	0.73
KHOS-240S, 0.01372 µM	0.499
KHOS-240S, 0.04115 µM	0.202
KHOS-240S, 0.1235 µM	0.0803
KHOS-240S, 0.3704 µM	0.0989
KHOS-240S, 1.111 µM	0.0816
KHOS-240S, 3.333 µM	0.0805
KHOS-240S, 10 µM	0.0884
MES-SA, 0.00017 µM	0.9129
MES-SA, 0.00051 µM	0.835
MES-SA, 0.00152 µM	0.354
MES-SA, 0.00457 µM	0.321
MES-SA, 0.01372 µM	0.265
MES-SA, 0.04115 µM	0.0423
MES-SA, 0.1235 µM	0.0397
MES-SA, 0.3704 µM	0.0566
MES-SA, 1.111 µM	0.0464
MES-SA, 3.333 µM	0.0357
MES-SA, 10 µM	0.0424
RD, 0.00017 µM	1.09
RD, 0.00051 µM	1.12
RD, 0.00152 µM	1.071
RD, 0.00457 µM	0.811
RD, 0.01372 µM	0.64
RD, 0.04115 µM	0.21
RD, 0.1235 µM	0.0929
RD, 0.3704 µM	0.108
RD, 1.111 µM	0.0875
RD, 3.333 µM	0.0715
RD, 10 µM	0.0653
SK-ES-1, 0.00017 µM	1.03
SK-ES-1, 0.00051 µM	0.976
SK-ES-1, 0.00152 µM	0.694
SK-ES-1, 0.00457 µM	0.423
SK-ES-1, 0.01372 µM	0.251
SK-ES-1, 0.04115 µM	0.00443
SK-ES-1, 0.1235 µM	-0.00147
SK-ES-1, 0.3704 µM	-0.0034
SK-ES-1, 1.111 µM	-0.0043
SK-ES-1, 3.333 µM	-0.00447
SK-ES-1, 10 µM	0.0007
SK-LMS-1, 0.00017 µM	1
SK-LMS-1, 0.00051 µM	1.02
SK-LMS-1, 0.00152 µM	0.994
SK-LMS-1, 0.00457 µM	0.86
SK-LMS-1, 0.01372 µM	0.664
SK-LMS-1, 0.04115 µM	0.364
SK-LMS-1, 0.1235 µM	0.292
SK-LMS-1, 0.3704 µM	0.27
SK-LMS-1, 1.111 µM	0.287
SK-LMS-1, 3.333 µM	0.288
SK-LMS-1, 10 µM	0.3
SW872, 0.00017 µM	0.96
SW872, 0.00051 µM	0.975
SW872, 0.00152 µM	0.992
SW872, 0.00457 µM	0.943
SW872, 0.01372 µM	0.765
SW872, 0.04115 µM	0.442
SW872, 0.1235 µM	0.171
SW872, 0.3704 µM	0.218
SW872, 1.111 µM	0.189
SW872, 3.333 µM	0.187
SW872, 10 µM	0.199
SW982, 0.00017 µM	1.06
SW982, 0.00051 µM	1.02
SW982, 0.00152 µM	0.858
SW982, 0.00457 µM	0.563
SW982, 0.01372 µM	0.382
SW982, 0.04115 µM	0.234
SW982, 0.1235 µM	0.15
SW982, 0.3704 µM	0.167
SW982, 1.111 µM	0.147
SW982, 3.333 µM	0.142
SW982, 10 µM	0.147
SW1353, 0.00017 µM	0.971
SW1353, 0.00051 µM	0.946
SW1353, 0.00152 µM	0.834
SW1353, 0.00457 µM	0.71
SW1353, 0.01372 µM	0.62
SW1353, 0.04115 µM	0.272
SW1353, 0.1235 µM	0.242
SW1353, 0.3704 µM	0.215
SW1353, 1.111 µM	0.183
SW1353, 3.333 µM	0.15
SW1353, 10 µM	0.1334
VA-ES-BJ, 0.00017 µM	1.01
VA-ES-BJ, 0.00051 µM	0.994
VA-ES-BJ, 0.00152 µM	0.94
VA-ES-BJ, 0.00457 µM	0.733
VA-ES-BJ, 0.01372 µM	0.457
VA-ES-BJ, 0.04115 µM	0.303
VA-ES-BJ, 0.1235 µM	0.151
VA-ES-BJ, 0.3704 µM	0.158
VA-ES-BJ, 1.111 µM	0.148
VA-ES-BJ, 3.333 µM	0.15
VA-ES-BJ, 10 µM	0.146
